Laboratory results: US20250230193A1, “CYCLIC COMPOUND HAVING SELECTIVE KRAS INHIBITORY EFFECT ON HRAS AND NRAS” (CHUGAI SEIYAKU KABUSHIKI KAISHA, priority 2022, published 2025)

How the values were obtained:
[1] = biological target: GDP-bound HRAS wild-type protein (Homo sapiens, UniProt P01112); test: Binding to HRAS by surface plasmon resonance (SPR), Single Cycle Kinetics; conditions: KD ratio HRAS/KRAS, class symbols
[2] = biological target: GDP-bound NRAS wild-type protein (Homo sapiens, UniProt P01111); test: Binding to NRAS by surface plasmon resonance (SPR), Single Cycle Kinetics; conditions: KD ratio NRAS/KRAS, class symbols
Chain of GDP-bound NRAS wild-type protein (P01111 whole entry): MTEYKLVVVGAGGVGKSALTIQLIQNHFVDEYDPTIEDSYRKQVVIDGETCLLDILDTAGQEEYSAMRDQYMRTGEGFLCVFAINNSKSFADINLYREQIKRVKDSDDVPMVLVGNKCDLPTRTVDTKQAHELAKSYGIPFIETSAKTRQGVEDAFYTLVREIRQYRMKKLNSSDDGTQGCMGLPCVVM

Chain of GDP-bound HRAS wild-type protein (P01112 whole entry): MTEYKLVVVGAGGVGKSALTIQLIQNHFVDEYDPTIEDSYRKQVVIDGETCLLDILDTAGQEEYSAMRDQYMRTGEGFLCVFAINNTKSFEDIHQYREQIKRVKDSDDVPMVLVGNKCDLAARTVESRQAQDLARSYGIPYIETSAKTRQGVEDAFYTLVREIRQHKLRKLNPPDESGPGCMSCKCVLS

Compound	HRAS/KRAS (ratio of KD value with respect to GDP-bound HRAS wild-type protein to KD value with respect to KRAS) [1]	NRAS/KRAS (ratio of KD value with respect to GDP-bound NRAS wild-type protein to KD value with respect to KRAS) [2]
CCO[C@@H]1C[C@H]2C(=O)NC3(CCC3)C(=O)N(C)[C@@H](CC(C)(C)C)C(=O)N(C)[C@H](C(=O)N3CCCC3)CC(=O)N(C)[C@@H](CC)C(=O)N[C@@H]([C@@H](C)CC)C(=O)N(C)CC(=O)N(C)[C@H]3C/C=C\CCN(C3=O)[C@@H](CC3CCCCC3)C(=O)N(C)CC(=O)N[C@@H](CCc3cc(F)c(C(F)(F)F)c(F)c3)C(=O)N2C1 [PP2772]	B (a compound having 3 or more and less than 10 is denoted as B)	B (a compound having 3 or more and less than 10 is denoted as B)
CCO[C@@H]1C[C@H]2C(=O)NC3(CC(C)(C)C3)C(=O)N(C)[C@@H](CC(C)(C)C)C(=O)N(C)[C@H](C(=O)N(C)C)CC(=O)N(C)[C@@H](C(C)C)C(=O)N[C@@H]([C@@H](C)CC)C(=O)N(C)CC(=O)N(C)[C@H]3C/C=C\CCN(C3=O)[C@@H](Cc3ccc(C(F)(F)F)cc3)C(=O)N(C)CC(=O)N[C@@H](CCc3ccc(C(F)(F)F)c(OC)c3)C(=O)N2C1 [PP2773]	B (a compound having 3 or more and less than 10 is denoted as B)	B (a compound having 3 or more and less than 10 is denoted as B)
CCC[C@H]1C(=O)N[C@@H]([C@@H](C)CC)C(=O)N(C)CC(=O)N(C)[C@H]2C/C=C\CCN(C2=O)[C@@H](Cc2ccc(C(F)(F)F)cc2)C(=O)N(C)CC(=O)N[C@@H](CCc2ccc(CC)c(Cl)c2)C(=O)N2C[C@H](OCC)C[C@H]2C(=O)NC2(CC(C)(C)C2)C(=O)N(C)[C@@H](C(CC)CC)C(=O)N(C)[C@H](C(=O)N(C)C)CC(=O)N1C [PP2777]	A (a compound having 10 or more and less than 20 is denoted as A)	AA (a compound having 20 or more is denoted as AA)
CCC[C@H]1C(=O)N[C@@H]([C@@H](C)CC)C(=O)N(C)CC(=O)N(C)[C@H]2C/C=C\CCN(C2=O)[C@@H](Cc2ccc(C)cc2)C(=O)N(C)CC(=O)N[C@@H](CCc2ccc(CC)c(Cl)c2)C(=O)N2C[C@H](OCC)C[C@H]2C(=O)NC2(CC(C)(C)C2)C(=O)N(C)[C@@H](C2CCCC2)C(=O)N(C)[C@H](C(=O)N(C)C)CC(=O)N1C [PP2778]	A (a compound having 10 or more and less than 20 is denoted as A)	A (a compound having 10 or more and less than 20 is denoted as A)
CCC[C@H]1C(=O)N[C@@H]([C@@H](C)CC)C(=O)N(C)CC(=O)N(C)[C@H]2C/C=C\CCN(C2=O)[C@@H](Cc2ccc(C)cc2)C(=O)N(C)CC(=O)N[C@@H](CCc2ccc(CC)c(Cl)c2)C(=O)N2C[C@H](OCC)C[C@H]2C(=O)NC2(CC(C)(C)C2)C(=O)N(C)[C@@H](C(CC)CC)C(=O)N(C)[C@H](C(=O)N(C)C)CC(=O)N1C [PP2779]	A (a compound having 10 or more and less than 20 is denoted as A)	A (a compound having 10 or more and less than 20 is denoted as A)
CCC[C@H]1C(=O)N[C@@H]([C@@H](C)CC)C(=O)N(C)CC(=O)N(C)[C@H]2C/C=C\CCN(C2=O)[C@@H](Cc2ccc(C(F)(F)F)cc2)C(=O)N(C)CC(=O)N[C@@H](CCc2cc(F)c(C(F)F)c(F)c2)C(=O)N2C[C@H](OCC)C[C@H]2C(=O)NC2(CC(C)(C)C2)C(=O)N(C)[C@@H](C2CCCC2)C(=O)N(C)[C@H](C(=O)N(C)C)CC(=O)N1C [PP2780]	A (a compound having 10 or more and less than 20 is denoted as A)	A (a compound having 10 or more and less than 20 is denoted as A)
CCC[C@H]1C(=O)N[C@@H]([C@@H](C)CC)C(=O)N(C)CC(=O)N(C)[C@H]2C/C=C\CCN(C2=O)[C@@H](Cc2ccc(C(F)(F)F)cc2)C(=O)N(C)CC(=O)N[C@@H](CCc2cc(F)c(C(F)F)c(F)c2)C(=O)N2C[C@H](OCC)C[C@H]2C(=O)NC2(CC(C)(C)C2)C(=O)N(C)[C@@H](C(CC)CC)C(=O)N(C)[C@H](C(=O)N(C)C)CC(=O)N1C [PP2781]	A (a compound having 10 or more and less than 20 is denoted as A)	AA (a compound having 20 or more is denoted as AA)
CCC[C@H]1C(=O)N[C@@H]([C@@H](C)CC)C(=O)N(C)CC(=O)N(C)[C@H]2C/C=C\CCN(C2=O)[C@@H](Cc2ccc(C)cc2)C(=O)N(C)CC(=O)N[C@@H](CCc2cc(F)c(C(F)F)c(F)c2)C(=O)N2C[C@H](OCC)C[C@H]2C(=O)NC2(CC(C)(C)C2)C(=O)N(C)[C@@H](C2CCCC2)C(=O)N(C)[C@H](C(=O)N(C)C)CC(=O)N1C [PP2782]	A (a compound having 10 or more and less than 20 is denoted as A)	A (a compound having 10 or more and less than 20 is denoted as A)
CCC[C@H]1C(=O)N[C@@H]([C@@H](C)CC)C(=O)N(C)CC(=O)N(C)[C@H]2C/C=C\CCN(C2=O)[C@@H](Cc2ccc(C(F)(F)F)cc2)C(=O)N(C)CC(=O)N[C@@H](CCc2ccc(Cl)c(C(F)(F)F)c2)C(=O)N2C[C@H](OCC)C[C@H]2C(=O)NC2(CC(C)(C)C2)C(=O)N(C)[C@@H](C2CCCC2)C(=O)N(C)[C@H](C(=O)N(C)C)CC(=O)N1C [PP2784]	A (a compound having 10 or more and less than 20 is denoted as A)	A (a compound having 10 or more and less than 20 is denoted as A)
CCC[C@H]1C(=O)N[C@@H]([C@@H](C)CC)C(=O)N(C)CC(=O)N(C)[C@H]2C/C=C\CCN(C2=O)[C@@H](Cc2ccc(C(F)(F)F)cc2)C(=O)N(C)CC(=O)N[C@@H](CCc2ccc(Cl)c(C(F)(F)F)c2)C(=O)N2C[C@H](OCC)C[C@H]2C(=O)NC2(CC(C)(C)C2)C(=O)N(C)[C@@H](C(CC)CC)C(=O)N(C)[C@H](C(=O)N(C)C)CC(=O)N1C [PP2785]	A (a compound having 10 or more and less than 20 is denoted as A)	AA (a compound having 20 or more is denoted as AA)
CCC[C@H]1C(=O)N[C@@H]([C@@H](C)CC)C(=O)N(C)CC(=O)N(C)[C@H]2C/C=C\CCN(C2=O)[C@@H](Cc2ccc(C)cc2)C(=O)N(C)CC(=O)N[C@@H](CCc2ccc(Cl)c(C(F)(F)F)c2)C(=O)N2C[C@H](OCC)C[C@H]2C(=O)NC2(CC(C)(C)C2)C(=O)N(C)[C@@H](C2CCCC2)C(=O)N(C)[C@H](C(=O)N(C)C)CC(=O)N1C [PP2786]	A (a compound having 10 or more and less than 20 is denoted as A)	A (a compound having 10 or more and less than 20 is denoted as A)
CCC[C@H]1C(=O)N[C@@H]([C@@H](C)CC)C(=O)N(C)CC(=O)N(C)[C@H]2C/C=C\CCN(C2=O)[C@@H](Cc2ccc(C)cc2)C(=O)N(C)CC(=O)N[C@@H](CCc2ccc(Cl)c(C(F)(F)F)c2)C(=O)N2C[C@H](OCC)C[C@H]2C(=O)NC2(CC(C)(C)C2)C(=O)N(C)[C@@H](C(CC)CC)C(=O)N(C)[C@H](C(=O)N(C)C)CC(=O)N1C [PP2787]	A (a compound having 10 or more and less than 20 is denoted as A)	AA (a compound having 20 or more is denoted as AA)
CCC[C@H]1C(=O)N[C@@H]([C@@H](C)CC)C(=O)N(C)CC(=O)N(C)[C@H]2C/C=C\CCN(C2=O)[C@@H](Cc2ccc(C(F)(F)F)cc2)C(=O)N(C)CC(=O)N[C@@H](CCc2ccc(Cl)c(OC)c2)C(=O)N2C[C@H](OCC)C[C@H]2C(=O)NC2(CC(C)(C)C2)C(=O)N(C)[C@@H](C2CCCC2)C(=O)N(C)[C@H](C(=O)N(C)C)CC(=O)N1C [PP2788]	A (a compound having 10 or more and less than 20 is denoted as A)	A (a compound having 10 or more and less than 20 is denoted as A)
CCC[C@H]1C(=O)N[C@@H]([C@@H](C)CC)C(=O)N(C)CC(=O)N(C)[C@H]2C/C=C\CCN(C2=O)[C@@H](Cc2ccc(C(F)(F)F)cc2)C(=O)N(C)CC(=O)N[C@@H](CCc2ccc(Cl)c(OC)c2)C(=O)N2C[C@H](OCC)C[C@H]2C(=O)NC2(CC(C)(C)C2)C(=O)N(C)[C@@H](C(CC)CC)C(=O)N(C)[C@H](C(=O)N(C)C)CC(=O)N1C [PP2789]	A (a compound having 10 or more and less than 20 is denoted as A)	AA (a compound having 20 or more is denoted as AA)
CCC[C@H]1C(=O)N[C@@H]([C@@H](C)CC)C(=O)N(C)CC(=O)N(C)[C@H]2C/C=C\CCN(C2=O)[C@@H](Cc2ccc(C)cc2)C(=O)N(C)CC(=O)N[C@@H](CCc2ccc(Cl)c(OC)c2)C(=O)N2C[C@H](OCC)C[C@H]2C(=O)NC2(CC(C)(C)C2)C(=O)N(C)[C@@H](C2CCCC2)C(=O)N(C)[C@H](C(=O)N(C)C)CC(=O)N1C [PP2790]	A (a compound having 10 or more and less than 20 is denoted as A)	A (a compound having 10 or more and less than 20 is denoted as A)
